What all share (assay type): cell-based
The test system of one experiment is Botrytis cinerea. As to the kind of experiment: Fungicidal activity screen in amended agar, 96 well plates, Botrytis cinerea. The settings on record: fungal growth vs DMSO control, Medium N agar, 5,000 spores/ml, 20, 2, 0.2 and 0.02 ppm, 18° C., assessed after 3 to 4 days, read-out: Botrytis EC50 ranking. On the procedure:
(§1) Compounds were screened in 96 well plates with 10 compounds per plate. Each compound was screened using agar amended to 20, 2, 0.2 and 0.02 ppm of the test material. Proline at 50 and 10 ppm and 0.2% DMSO were used respectively as positive and negative controls. Each test concentration and standard were tested twice on a plate.
(§2) Compounds were screened against the following three fungal pathogens—Botrytis cinerea, Alternaria alternata and Zymoseptoria tritici. The agar used in the test varied depending on the pathogen with Medium N used for B. cinerea and A. alternata and 1% potato dextrose agar for Z. tritici. For each pathogen sufficient spores were added to the appropriate agar to give 1,000 spores/ml agar of A. alternata, 5,000 spores/ml agar of B. cinerea and 10,000 spores/ml agar of Z. tritici.
(§3) A ×10 stock solution in 2% DMSO was produced for each dose i.e. 200, 20, 2 and 0.2 ppm, and 10 μl of this added to the appropriate wells on the plate. An equivalent amount of 2% DMSO and Proline stock at 500 and 100 ppm were added for the controls. To each well 90 μl of the appropriate agar spore suspension was added to give the final well concentrations outlined in the first paragraph.
(§4) Plates were incubated at room temperature (18° C.) and assessed after • a) 3 to 4 days A. alternata and B. cinerea • b) 7 days for Z. tritici
(§5) The amount of fungal growth in each well was compared to the DMSO controls and scored according to the following key • 0—no growth (100% control) • 1—growth reduced by 75% compared to DMSO control (25% growth) • 2—growth reduced by 50% compared to DMSO control (50% growth) • 3—growth reduced by 25% compared to DMSO control growth (75% growth) • 4—no reduction in growth compared to DMSO control growth (100% growth)
(§6) Those numbers were then used to give an EC50. The ranking in the table is: • A) EC50<20 ppm, B) EC50≥20ppm

The subject of another experiment is Alternaria alternata. As to the kind of experiment: Fungicidal activity screen in amended agar, 96 well plates, Alternaria alternata. As to conditions: fungal growth vs DMSO control, Medium N agar, 1,000 spores/ml, 20, 2, 0.2 and 0.02 ppm, 18° C., assessed after 3 to 4 days, read-out: Alternaria EC50 ranking. How it is done:
as §1, §2, §3, §4, §5, §6

Another experiment relates to Zymoseptoria tritici. The experiment in a line: Fungicidal activity screen in amended agar, 96 well plates, Zymoseptoria tritici. As to conditions: 168 h, fungal growth vs DMSO control, 1% potato dextrose agar, 10,000 spores/ml, 20, 2, 0.2 and 0.02 ppm, 18° C., assessed after 7 days, read-out: Zymoseptoria EC50 ranking. How it is done:
as §1, §2, §3, §4, §5, §6

Structures are written as SMILES. A value given as a limit tells only on which side of the number the result lay.

As usually defined, the EC50 is the concentration giving half of the maximal effect. As to `COc1ccc(-c2c(-n3cnc4cc(Cl)cc(F)c43)ccnc2Cl)c(Cl)c1` [Example 13], the EC50 in the experiment with Botrytis cinerea, with Alternaria alternata and in the experiment with Zymoseptoria tritici was under 20 µg/mL each time.
On to `Cc1ccnc(-n2nnc3cc(Cl)cc(F)c32)c1-c1ccc(F)cc1Cl` [Example 23], for which the EC50 with Botrytis cinerea, in the experiment on Alternaria alternata and with Zymoseptoria tritici was under 20 µg/mL each time.
Consider `COc1ccc(-c2c(-n3nnc4cc(Br)cc(F)c43)ccnc2Cl)c(Cl)c1` [Example 26], for which the figures for the EC50 in the experiment on Botrytis cinerea, in the experiment on Alternaria alternata and in the experiment with Zymoseptoria tritici were under 20 µg/mL, at least 20 µg/mL and at least 20 µg/mL, respectively.
As to `COc1ccc(-c2c(C)ncnc2-n2cnc3cc(F)cc(F)c32)c(Cl)c1` [Example 2], the EC50 in the experiment with Botrytis cinerea, in the experiment with Alternaria alternata and in the experiment on Zymoseptoria tritici was under 20 µg/mL in each case.
Turning to `Cc1ncnc(-n2cnc3cc(Cl)cc(F)c32)c1-c1ccc(F)cc1Cl` [Example 12], the EC50 in the experiment on Botrytis cinerea, in the experiment on Alternaria alternata and in the experiment with Zymoseptoria tritici was under 20 µg/mL throughout.
Regarding `Cc1ccc2c(c1)ncn2-c1cccc(C)c1-c1ccc(F)cc1Cl` [Example 10], the EC50 in the experiment with Botrytis cinerea, with Alternaria alternata and with Zymoseptoria tritici was under 20 µg/mL in each case.
Regarding `COc1ccc(-c2c(-n3cnc4cc(Br)cc(F)c43)ccnc2Cl)c(Cl)c1` [Example 18], the EC50 in the experiment with Botrytis cinerea, with Alternaria alternata and with Zymoseptoria tritici was under 20 µg/mL in each case.
`Cc1ccnc(-n2cnc3cc(F)cc(F)c32)c1-c1ccc(F)cc1Cl` [Example 4]: the EC50 in the experiment with Botrytis cinerea, with Alternaria alternata and in the experiment on Zymoseptoria tritici was under 20 µg/mL throughout.
As for `C#CCOc1ccc2c(c1)ncn2-c1nccc(C)c1-c1ccc(F)cc1Cl` [Example 17], the EC50 with Botrytis cinerea, with Alternaria alternata and in the experiment with Zymoseptoria tritici was under 20 µg/mL each time.
Turning to `COc1cc(F)c(-c2c(C)ncnc2-n2cnc3cc(Cl)cc(F)c32)c(F)c1` [Example 19], the EC50 in the experiment on Botrytis cinerea, in the experiment on Alternaria alternata and in the experiment on Zymoseptoria tritici was under 20 µg/mL in each case.
Regarding `COc1ccc(-c2c(C)ncnc2-n2cnc3cc(Cl)cc(F)c32)c(Cl)c1` [Example 11], the EC50 in the experiment with Botrytis cinerea, with Alternaria alternata and in the experiment with Zymoseptoria tritici was under 20 µg/mL throughout.
`Fc1ccc(-c2c(-n3cnc4cc(Cl)cc(F)c43)ccnc2Cl)c(Cl)c1` [Example 14]: the EC50 in the experiment on Botrytis cinerea, in the experiment with Alternaria alternata and with Zymoseptoria tritici was under 20 µg/mL throughout.
Turning to `Fc1ccc(-c2c(-n3nnc4cc(Cl)cc(F)c43)ccnc2Cl)c(Cl)c1` [Example 25], the EC50 in the experiment with Botrytis cinerea, in the experiment on Alternaria alternata and with Zymoseptoria tritici was under 20 µg/mL each time.
Turning to `COc1ccc(-c2c(C)ncnc2-n2nnc3cc(Cl)cc(F)c32)c(Cl)c1` [Example 22], the EC50 in the experiment with Botrytis cinerea was under 20 µg/mL; in the experiment on Alternaria alternata, at least 20 µg/mL; in the experiment on Zymoseptoria tritici it was under 20 µg/mL.
On to `Cc1cccc(-n2cnc3cc(Cl)ccc32)c1-c1ccc(F)cc1Cl` [Example 9], for which the EC50 in the experiment with Botrytis cinerea, with Alternaria alternata and in the experiment with Zymoseptoria tritici was under 20 µg/mL throughout.
Regarding `Fc1ccc(-c2c(-n3cnc4cc(F)cc(F)c43)ccnc2Cl)c(Cl)c1` [Example 5], the EC50 in the experiment with Botrytis cinerea, in the experiment on Alternaria alternata and with Zymoseptoria tritici was under 20 µg/mL throughout.
For the compound `Cc1cccc(-n2cnc3cc(F)cc(F)c32)c1-c1ccc(F)cc1Cl` [Example 6], the EC50 with Botrytis cinerea, in the experiment on Alternaria alternata and in the experiment with Zymoseptoria tritici was under 20 µg/mL throughout.
With `Cc1ncnc(-n2cnc3cc(F)cc(F)c32)c1-c1ccccc1Cl` [Example 3], the EC50 in the experiment on Botrytis cinerea, in the experiment with Alternaria alternata and in the experiment with Zymoseptoria tritici was under 20 µg/mL each time.
Consider `Cc1ccnc(-n2cnc3cc(Cl)cc(F)c32)c1-c1ccc(F)cc1Cl` [Example 16], for which the EC50 in the experiment on Botrytis cinerea, with Alternaria alternata and in the experiment on Zymoseptoria tritici was under 20 µg/mL in each case.
Turning to `C#CCOc1ccc2c(c1)ncn2-c1ccnc(Cl)c1-c1ccc(F)cc1Cl` [Example 15], the EC50 in the experiment with Botrytis cinerea, in the experiment on Alternaria alternata and with Zymoseptoria tritici was under 20 µg/mL in each case.
`COc1ccc(-c2c(-n3nnc4cc(Cl)cc(F)c43)ccnc2Cl)c(Cl)c1` [Example 20, 5-Chloro-1-(2-chloro-3-(2-chloro-4-methoxyphenyl)pyridin-4-yl)-7-fluoro-1H-benzo[d][1,2,3]triazole]: the EC50 in the experiment with Botrytis cinerea, in the experiment on Alternaria alternata and with Zymoseptoria tritici was under 20 µg/mL in each case.
Take `Cc1ncnc(-n2nnc3cc(Cl)cc(F)c32)c1-c1ccc(F)cc1Cl` [Example 21]: the EC50 is under 20 µg/mL in the experiment on Botrytis cinerea, at least 20 µg/mL in the experiment with Alternaria alternata and under 20 µg/mL in the experiment with Zymoseptoria tritici.
In the case of `Fc1ccc(-c2c(-n3cnc4cc(F)ccc43)cnnc2Cl)c(Cl)c1` [Example 27], the figures for the EC50 in the experiment with Botrytis cinerea, in the experiment with Alternaria alternata and in the experiment on Zymoseptoria tritici were under 20 µg/mL, at least 20 µg/mL and under 20 µg/mL, respectively.
In the case of `Cc1cccc(-n2cnc3ccccc32)c1-c1ccc(F)cc1Cl` [Example 8], the EC50 with Botrytis cinerea, in the experiment with Alternaria alternata and with Zymoseptoria tritici was under 20 µg/mL in each case.
Turning to `COc1ccc(-c2c(C)ccnc2-n2nnc3cc(Cl)cc(F)c32)c(Cl)c1` [Example 24], the EC50 was under 20 µg/mL with Botrytis cinerea, at least 20 µg/mL in the experiment with Alternaria alternata and under 20 µg/mL with Zymoseptoria tritici.
As for `Cc1ncnc(-n2cnc3cc(F)cc(F)c32)c1-c1ccc(F)cc1Cl` [Example 1, 1-(5-(2-Chloro-4-fluorophenyl)-6-methylpyrimidin-4-yl)-5,7-difluoro-1H-benzo[d]imidazole], the EC50 with Botrytis cinerea, in the experiment on Alternaria alternata and with Zymoseptoria tritici was under 20 µg/mL each time.
Regarding `COc1cc(F)c(-c2c(C)cccc2-n2cnc3cc(F)cc(F)c32)c(F)c1` [Example 7], the EC50 in the experiment on Botrytis cinerea, in the experiment on Alternaria alternata and in the experiment with Zymoseptoria tritici was under 20 µg/mL throughout.

For the origin of these results see patent publication US11440900B2, “Agricultural chemicals” (GLOBACHEM NV, priority 2018, dated 2022).
